# Assay results as given in paper PMC6251916, “CKD-506, a novel HDAC6-selective inhibitor, improves renal outcomes and survival in a mouse model of systemic lupus erythematosus” (Scientific Reports, 2018).
# Columns and labels:
# other HDAC isoforms = test: HDAC panel assay (enzyme activity); type: biochemical
# Procedure: (§1) HDAC panel assay was performed by Reaction biology Corp. (Malvern, PA, USA) according to their validated protocol. To evaluate the potency and selectivity of CKD-506, HDAC panel assay was carried out by Reaction biology Corp. Briefly, the deacetylation reaction was performed in 50 mM Tris-HCl pH 8.0, 137 mM NaCl, 2.7 mM KCl, 1 mM MgCl2, and 1 mg/ml bovine serum albumin (BSA) with RHK-K(Ac)-AMC as substrate. After the reaction, a fluorescence signal (Ex. 360 nm/Em. 460 nm) developed (~30 min.) by addition of an equal volume of 2 mM nicotinamide, 16 mg/mL trypsin in 50 mM Tris-HCl pH 8.0, 137 mM NaCl, 2.7 mM KCl, and 1 mM MgCl2.
# HDAC8 = biological target: T1, HDAC8 (Homo sapiens, UniProt Q9BY41); test: HDAC panel assay (enzyme activity); type: biochemical
# T1 construct: purchased Reaction biology Corp. (Malvern, PA, USA)
# T1 sequence (Q9BY41 1-377): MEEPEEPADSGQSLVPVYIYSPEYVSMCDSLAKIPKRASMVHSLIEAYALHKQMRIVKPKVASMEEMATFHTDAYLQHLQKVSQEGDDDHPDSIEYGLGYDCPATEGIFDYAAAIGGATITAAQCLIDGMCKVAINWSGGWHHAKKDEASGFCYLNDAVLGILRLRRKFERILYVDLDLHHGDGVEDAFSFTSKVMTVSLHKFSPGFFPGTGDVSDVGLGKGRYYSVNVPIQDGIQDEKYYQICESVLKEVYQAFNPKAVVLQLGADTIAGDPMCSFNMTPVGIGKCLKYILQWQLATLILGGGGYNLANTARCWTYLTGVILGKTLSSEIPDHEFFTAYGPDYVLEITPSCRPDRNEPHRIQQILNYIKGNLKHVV
# Procedure: as §1
# HDAC1 = biological target: T2, HDAC1 (Homo sapiens, UniProt Q13547); test: HDAC panel assay (enzyme activity); type: biochemical
# T2 construct: purchased Reaction biology Corp. (Malvern, PA, USA)
# Procedure: as §1
# HDAC2 = biological target: T3, HDAC2 (Homo sapiens, UniProt Q92769); test: HDAC panel assay (enzyme activity); type: biochemical
# T3 construct: purchased Reaction biology Corp. (Malvern, PA, USA)
# Procedure: as §1
# HDAC7 = biological target: T4, HDAC7 (Homo sapiens, UniProt Q8WUI4); test: HDAC panel assay (enzyme activity); type: biochemical
# T4 construct: purchased Reaction biology Corp. (Malvern, PA, USA)
# T4 sequence (Q8WUI4 1-952): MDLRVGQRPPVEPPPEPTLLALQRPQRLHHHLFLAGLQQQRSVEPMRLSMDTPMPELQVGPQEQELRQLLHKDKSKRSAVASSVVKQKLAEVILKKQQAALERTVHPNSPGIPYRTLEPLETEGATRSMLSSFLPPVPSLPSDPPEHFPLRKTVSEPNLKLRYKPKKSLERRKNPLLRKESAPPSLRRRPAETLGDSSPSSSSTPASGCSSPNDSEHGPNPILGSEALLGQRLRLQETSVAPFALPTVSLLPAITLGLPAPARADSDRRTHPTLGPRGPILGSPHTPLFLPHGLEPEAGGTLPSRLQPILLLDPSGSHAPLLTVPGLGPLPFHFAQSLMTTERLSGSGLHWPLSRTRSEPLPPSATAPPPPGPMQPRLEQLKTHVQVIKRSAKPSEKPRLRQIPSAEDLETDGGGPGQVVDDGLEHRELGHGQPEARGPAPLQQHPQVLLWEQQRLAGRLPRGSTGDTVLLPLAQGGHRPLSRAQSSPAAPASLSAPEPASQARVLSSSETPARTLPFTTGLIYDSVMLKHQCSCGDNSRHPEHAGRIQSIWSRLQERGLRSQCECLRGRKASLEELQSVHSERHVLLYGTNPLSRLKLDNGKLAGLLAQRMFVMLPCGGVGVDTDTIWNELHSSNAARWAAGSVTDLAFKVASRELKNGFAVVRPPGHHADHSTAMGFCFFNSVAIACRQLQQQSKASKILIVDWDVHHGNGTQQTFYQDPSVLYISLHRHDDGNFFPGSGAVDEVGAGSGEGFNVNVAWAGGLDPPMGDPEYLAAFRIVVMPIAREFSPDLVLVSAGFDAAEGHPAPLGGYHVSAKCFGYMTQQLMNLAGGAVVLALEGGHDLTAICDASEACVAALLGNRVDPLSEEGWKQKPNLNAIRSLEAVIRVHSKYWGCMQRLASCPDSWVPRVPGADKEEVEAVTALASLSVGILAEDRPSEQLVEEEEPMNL
# Procedure: as §1
# NZB/W F1 female mice = test: Murine SLE model: serum immunoglobulin isotyping; type: in vivo, mouse; settings: group CKD50
# Procedure: Survival had been monitored until 42 weeks of age.
# Serum immunoglobulin concentrations were determined with mouse IgG1, IgG2A, IgG2B, IgG3, and IgM Isotyping kits and a mouse Mag Isotyping assay base kit (R&D Systems, Minneapolis, MN). Thirty-fold diluted sera were used for analysis of IgM and IgG2B levels, 6000-fold diluted sera were used for analysis of IgG1 and IgG2A levels and 48,000-fold diluted sera were used for analysis of IgG3 level.
# [1] = Pharmacokinetic analysis after single intraperitoneal injection; type: in vivo, NZB/W F1 mice; settings: for AUCinf / AUC0-24hr / Cmax / T1/2 / Tmax: plasma, mean ± SD; for AUCinf: extrapolated
# Procedure: Four 23-week old female NZB/W F1 mice were purchased from Jackson Laboratory and housed in CKD Research Institute animal facility. This study was reviewed and approved by the Institutional Animal Care and Use Committee of CKD Research Institute. All procedures were in compliance with Animal Welfare Act Regulations and the Guide for the Care and Use of Laboratory Animals. The indicated amount of CKD-506 was injected intraperitoneally into NZB/W F1 mice. Blood samples were collected from retro-orbital plexus using a heparinized capillary tube under diethyl-ether anesthesia at pre-dose (0) and 0.25, 1, 2, 4, 8 and 24 hours post-dose at day of PK sampling. After centrifugation at 13,000 rpm for 4 min and 4 °C, ten microliters of the separated plasma was dispensed into microtube and 120 μl of organic solvent (90% acetonitrile (in MeOH, v/v)) was immediately added for deproteinization/extraction. The pre-treated samples had been kept at −70 °C until analysis. Ten microliters of internal standard (verapamil 500 ng/ml in acetonitrile) was added into the pre-treated plasma samples and vortexed for 1 min and then, centrifuged at 13,000 rpm for 4 min and 4 °C. Eighty microliters of the supernatant of the sample were transferred into a 96 well-autosampler plate and 40 μl of HPLC water was then added in each well. The concentration of CKD-506 in samples were analyzed using API 4000 QTRAP (AB SCIEX) (Framingham, MA).
# T2 sequence (Q13547 whole entry): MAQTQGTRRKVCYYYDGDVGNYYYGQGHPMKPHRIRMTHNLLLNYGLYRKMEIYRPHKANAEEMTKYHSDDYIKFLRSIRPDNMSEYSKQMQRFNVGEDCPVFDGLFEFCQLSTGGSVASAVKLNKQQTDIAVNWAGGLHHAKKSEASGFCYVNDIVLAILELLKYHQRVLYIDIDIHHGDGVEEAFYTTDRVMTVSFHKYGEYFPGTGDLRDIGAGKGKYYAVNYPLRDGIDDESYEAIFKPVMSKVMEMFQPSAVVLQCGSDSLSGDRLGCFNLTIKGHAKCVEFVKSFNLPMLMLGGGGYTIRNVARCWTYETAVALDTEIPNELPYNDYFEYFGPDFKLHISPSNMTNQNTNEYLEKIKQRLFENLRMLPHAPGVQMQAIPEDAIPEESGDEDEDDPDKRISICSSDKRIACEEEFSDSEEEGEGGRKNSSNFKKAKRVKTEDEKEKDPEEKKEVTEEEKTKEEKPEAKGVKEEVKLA
# T3 sequence (Q92769 whole entry): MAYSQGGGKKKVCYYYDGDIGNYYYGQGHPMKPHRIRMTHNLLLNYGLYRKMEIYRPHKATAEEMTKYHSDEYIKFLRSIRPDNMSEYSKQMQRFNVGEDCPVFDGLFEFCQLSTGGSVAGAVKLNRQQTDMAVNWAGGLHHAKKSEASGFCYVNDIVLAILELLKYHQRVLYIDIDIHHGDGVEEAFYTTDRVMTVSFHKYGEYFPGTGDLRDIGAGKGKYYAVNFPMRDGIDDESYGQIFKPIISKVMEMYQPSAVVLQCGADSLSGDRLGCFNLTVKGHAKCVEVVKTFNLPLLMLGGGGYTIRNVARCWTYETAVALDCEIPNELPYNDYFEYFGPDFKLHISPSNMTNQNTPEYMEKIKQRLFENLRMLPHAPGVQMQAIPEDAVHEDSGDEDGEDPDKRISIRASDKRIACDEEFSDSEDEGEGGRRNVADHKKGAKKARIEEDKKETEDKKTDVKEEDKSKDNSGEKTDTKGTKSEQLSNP
substance,measurement,setting,value
CKD-506,inhibition of enzyme activity of other HDAC isoforms,other HDAC isoforms,does not inhibit
same,IC50,HDAC8,2 to 5 µM
same,IC50,HDAC1,2 to 5 µM
same,IC50,HDAC2,2 to 5 µM
same,IC50,HDAC7,2 to 5 µM
same,serum levels of IgM vs vehicle,NZB/W F1 female mice,significantly lower
same,AUCinf,[1]; 10 mg/kg i.p. single,818 ± 130 ng·h/mL
same,AUC0-24hr,[1]; 10 mg/kg i.p. single,737 ± 104 ng/h/mL
same,Cmax,[1]; 10 mg/kg i.p. single,1336 ± 95.6 ng/mL
same,T1/2,[1]; 10 mg/kg i.p. single,14.0 ± 2.60 h
same,Tmax,[1]; 10 mg/kg i.p. single,0.25 ± 0.00 h
same,time for which dose is enough to inhibit in vivo HDAC6 activity,[1]; 30 mg/kg,more than 2 hr
same,AUCinf,[1]; 30 mg/kg i.p. single,2129 ± 275 ng·h/mL
same,AUC0-24hr,[1]; 30 mg/kg i.p. single,1997 ± 290 ng/h/mL
same,Cmax,[1]; 30 mg/kg i.p. single,3749 ± 314 ng/mL
same,T1/2,[1]; 30 mg/kg i.p. single,9.64 ± 4.08 h
same,Tmax,[1]; 30 mg/kg i.p. single,0.25 ± 0.00 h
same,time for which dose is enough to inhibit (90% of) in vivo HDAC6 activity,[1]; 50 mg/kg,more than 4 hr
same,AUCinf,[1]; 50 mg/kg i.p. single,4321 ± 408 ng·h/mL
same,AUC0-24hr,[1]; 50 mg/kg i.p. single,4028 ± 419 ng/h/mL
same,Cmax,[1]; 50 mg/kg i.p. single,7276 ± 585 ng/mL
same,T1/2,[1]; 50 mg/kg i.p. single,10.0 ± 1.33 h
same,Tmax,[1]; 50 mg/kg i.p. single,0.25 ± 0.00 h
same,exposure (Cmax and AUC) versus dose,"[1]; 10, 30, 50 mg/kg i.p.",increased in a dose-dependent manner
same,plasma half-life (T1/2),"[1]; single IP, overall statement",about 10 hrs
